Earlier results, collected in patent US20260102333A1, “TOPICAL DELIVERY OF ANTIFUNGAL AGENTS FOR TREATING FUNGAL INFECTIONS” (LYOTROPIC DELIVERY SYSTEMS LTD., priority 2022, published 2026).
Counter-ions that a name gives are not always drawn.

Columns and labels:
[1] = system: Trichophyton mentagrophytes

MIC50 (minimum inhibitory concentration required for 50% inhibition) (Trichophyton rubrum): 0.03 to 0.5 µg/mL
MIC50 (minimum inhibitory concentration required for 50% inhibition) [1]: 0.03 to 0.5 µg/mL
Compound: CN(C/C=C/C#CC(C)(C)C)Cc1cccc2ccccc12 [TRB, terbinafine hydrochloride]
